This test deals with microorganisms. Nature of the test: Targeting peptide binding to target microorganisms (Tables 3, 10, 12). The note with it: microorganism(s) the targeting peptide binds; binding in aqueous buffers varied with peptide solubility, preferably 1x PBS.

“Also recorded” adds a separate entry of the source.

For the substance “PF-361 (NQVTEGIRLLVE; Peptide with targeting and/or antimicrobial activity)”, the “Target(s)” value is “S. epidermidis; also recorded: E. coli; also recorded: E. faecalis; also recorded: C. jejuni”.

As for “PF-364 (LVNGIKI; Peptide with targeting and/or antimicrobial activity)”, the “Target(s)” value was “S. epidermidis; also recorded: B. fragilis; also recorded: P. aeruginosa; also recorded: C. jeikeium; also recorded: C. jejuni”.

Regarding “PF-365 (LYKQKIQLEEELEKLKDDRQ; Peptide with targeting and/or antimicrobial activity)”, the “Target(s)” value is reported as “S. epidermidis; also recorded: B. subtilis; also recorded: B. fragilis; also recorded: P. aeruginosa; also recorded: C. albicans”.

For the substance “PF-367 (TKTPGTFTPGTGIQKTAVPL; Peptide with targeting and/or antimicrobial activity)”, the “Target(s)” value is given as “B. subtilis”.

On to “PF-368 (MLKQTA; Peptide with targeting and/or antimicrobial activity)”, for which the “Target(s)” value is reported as “C. jeikeium; also recorded: C. jejuni”.

As to “PF-371 (TFIYNEF; Peptide with targeting and/or antimicrobial activity)”, the “Target(s)” value is given as “S. epidermidis; also recorded: B. fragilis; also recorded: C. jejuni”.

On to “PF-372 (KKQDKRIEDKYKRMKKGD; Peptide with targeting and/or antimicrobial activity)”, for which the “Target(s)” value is listed as “C. jeikeium; also recorded: C. jejuni”.

As to “PF-384 (HISKERFEAY; Peptide with targeting and/or antimicrobial activity)”, the “Target(s)” value is “E. faecalis; also recorded: C. jeikeium; also recorded: C. jejuni”.

With “PF-388 (ITPLLDEIGKVCIDKISK; Peptide with targeting and/or antimicrobial activity)”, the “Target(s)” value is recorded as “E. faecalis; also recorded: C. jeikeium; also recorded: C. jejuni”.

For the substance “PF-400 (VIAWKFRNKFENSGV; Peptide with targeting and/or antimicrobial activity)”, the “Target(s)” value was “S. epidermidis; also recorded: E. coli; also recorded: S. pneumoniae; also recorded: E. faecalis; also recorded: C. jeikeium”.

As to “PF-402 (FIDVLKSKINEFLN; Peptide with targeting and/or antimicrobial activity)”, the “Target(s)” value is listed as “S. epidermidis; also recorded: P. aeruginosa; also recorded: E. faecalis; also recorded: C. jejuni”.

Turning to “PF-409 (DLVQSILSEFKKSG; Peptide with targeting and/or antimicrobial activity)”, the “Target(s)” value was “S. epidermidis and MRSA and C. jeikeium and C. jejuni”.

With “PF-412 (TSGWLGQLEQ; Peptide with targeting and/or antimicrobial activity)”, the “Target(s)” value is recorded as “M. luteus; also recorded: E. coli; also recorded: C. albicans; also recorded: C. jeikeium; also recorded: C. jejuni”.

As to “PF-435 (MSRWDGHSDKGEAPAGKPPMHGFGLNGENK; Peptide with targeting and/or antimicrobial activity)”, the “Target(s)” value is “C. jeikeium”.

For “PF-436 (KKHVLVGKQEKNG; Peptide with targeting and/or antimicrobial activity)”, the “Target(s)” value was “C. jeikeium”.

Regarding “PF-438 (QPYFQNQFKKITGYTPLQYRKEKR; Peptide with targeting and/or antimicrobial activity)”, the “Target(s)” value is listed as “S. epidermidis; also recorded: E. coli; also recorded: S. pneumoniae; also recorded: C. jeikeium; also recorded: C. jejuni”.

“PF-441 (TQVHKMARGIDPGPANGIYR; Peptide with targeting and/or antimicrobial activity)”: the “Target(s)” value is reported as “C. jeikeium”.

On to “PF-463 (MVILVFSLIFIFTDNYLVYQSKSIKEDVMI; Peptide with targeting and/or antimicrobial activity)”, for which the “Target(s)” value is “S. epidermidis; also recorded: E. coli; also recorded: P. aeruginosa; also recorded: C. albicans; also recorded: S. pneumoniae; also recorded: E. faecalis; also recorded: M. smegmatis”.

“PF-481 (DELYEIMDKVIEEFNKDIEQNNNNGNNEDLTENKIN; Peptide with targeting and/or antimicrobial activity)”: the “Target(s)” value is reported as “C. jeikeium”.

On to “PF-483 (EDNKDKKDKKDK; Peptide with targeting and/or antimicrobial activity)”, for which the “Target(s)” value is on record as “P. mirabilis; also recorded: C. jeikeium; also recorded: C. jejuni”.

In the case of “PF-486 (MQKEGEEDY; Peptide with targeting and/or antimicrobial activity)”, the “Target(s)” value is “S. mutans”.

With “PF-487 (MYKAIAVLAMTIMAFFIFVYPFFIVGLILG; Peptide with targeting and/or antimicrobial activity)”, the “Target(s)” value is on record as “S. mutans; also recorded: E. coli”.

Regarding “PF-488 (YPNEQGHHKNNLKNIIIE; Peptide with targeting and/or antimicrobial activity)”, the “Target(s)” value is recorded as “S. mutans; also recorded: E. coli”.

On to “PF-489 (KVDRVSTTITEKIK; Peptide with targeting and/or antimicrobial activity)”, for which the “Target(s)” value is listed as “S. mutans”.

On to “PF-490 (RLILVSGNATVQK; Peptide with targeting and/or antimicrobial activity)”, for which the “Target(s)” value is recorded as “S. mutans; also recorded: E. coli”.

Consider “PF-491 (IHQYSSKPDIVGQEAKTVQQINS; Peptide with targeting and/or antimicrobial activity)”, for which the “Target(s)” value is given as “S. mutans; also recorded: E. coli”.

Regarding “PF-492 (IQIDAASFYSISKSTIK; Peptide with targeting and/or antimicrobial activity)”, the “Target(s)” value is “S. mutans; also recorded: B. subtilis; also recorded: E. coli”.

Turning to “PF-493 (PGAFFFCRGRGCWCGIGW; Peptide with targeting and/or antimicrobial activity)”, the “Target(s)” value is recorded as “S. mutans; also recorded: B. subtilis; also recorded: E. coli”.

“PF-494 (FTEPLRPLQAKGQIISIKPSTSSS; Peptide with targeting and/or antimicrobial activity)”: the “Target(s)” value is given as “S. mutans”.

Consider “PF-495 (KGIYKKRTY; Peptide with targeting and/or antimicrobial activity)”, for which the “Target(s)” value is given as “S. mutans; also recorded: E. coli”.

In the case of “PF-496 (EVTKRLVALAQQQLRG; Peptide with targeting and/or antimicrobial activity)”, the “Target(s)” value was “S. mutans; also recorded: E. coli”.

Consider “PF-498 (MSEEEEVSEKVYNYLRRNEFFEVRKEEFSA; Peptide with targeting and/or antimicrobial activity)”, for which the “Target(s)” value is reported as “S. mutans; also recorded: E. coli”.

For “PF-500 (MGIFKEEKIKFIDCKGEEVILKIKIKDIKK; Peptide with targeting and/or antimicrobial activity)”, the “Target(s)” value is on record as “S. mutans; also recorded: E. coli”.

Consider “PF-501 (GSTAHKSPIGSTNNQWGMKKTPTD; Peptide with targeting and/or antimicrobial activity)”, for which the “Target(s)” value was “S. mutans”.

For the substance “PF-502 (NKGKQMQDQTGKQPIVDNG; Peptide with targeting and/or antimicrobial activity)”, the “Target(s)” value is recorded as “S. mutans”.

“PF-503 (VVTLKDIVAVIEDQGYDVQ; Peptide with targeting and/or antimicrobial activity)”: the “Target(s)” value is recorded as “S. mutans”.

In the case of “PF-504 (ILSVELSTKTSASGS; Peptide with targeting and/or antimicrobial activity)”, the “Target(s)” value is recorded as “S. mutans; also recorded: E. coli”.

In the case of “PF-505 (GYTKDPGTGI; Peptide with targeting and/or antimicrobial activity)”, the “Target(s)” value is given as “S. mutans”.

In the case of “PF-506 (SGRGFALIVVLFILLIIVGAACIR; Peptide with targeting and/or antimicrobial activity)”, the “Target(s)” value is recorded as “S. mutans; also recorded: E. coli”.

Take “PF-507 (LALSIANLFKKKA; Peptide with targeting and/or antimicrobial activity)”: the “Target(s)” value is “S. mutans; also recorded: E. coli”.

Regarding “PF-508 (VSTFGKVVKVVDEK; Peptide with targeting and/or antimicrobial activity)”, the “Target(s)” value is given as “S. mutans”.

Turning to “PF-509 (EAKVQAKGEQIACNNY; Peptide with targeting and/or antimicrobial activity)”, the “Target(s)” value is “S. mutans; also recorded: B. subtilis; also recorded: E. coli”.

Take “PF-510 (WYLYKKQSNQNDRGIPK; Peptide with targeting and/or antimicrobial activity)”: the “Target(s)” value is “S. mutans; also recorded: E. coli”.

In the case of “PF-568 (TQAVQVKTAQAQQQ; Peptide with targeting and/or antimicrobial activity)”, the “Target(s)” value is listed as “S. epidermidis”.

As to “PF-570 (KKFPTEESHIQAVLEFKKLTEHPSG; Peptide with targeting and/or antimicrobial activity)”, the “Target(s)” value was “S. pneumoniae; also recorded: C. jeikeium”.

On to “PF-641 (SWKCHHLAIGGSWKCHHLAI; Peptide with targeting and/or antimicrobial activity)”, for which the “Target(s)” value is “S. epidermidis and M. luteus and E. coli and C. albicans and MRSA and E. faecalis and C. jeikeium and C. jejuni”.

Regarding “PF-648 (ARRYPAAGS; Peptide with targeting and/or antimicrobial activity)”, the “Target(s)” value is reported as “S. mutans; also recorded: E. coli”.

As for “PF-650 (IRSDQPGRQSRSSPRWPTGAGRHR; Peptide with targeting and/or antimicrobial activity)”, the “Target(s)” value is “Mycobacteria spp”.

For “PF-669 (RADRIESYPADGDRVITLWRNPYR; Peptide with targeting and/or antimicrobial activity)”, the “Target(s)” value was “Mycobacteria spp”.

Regarding “PF-671 (TVSAFRTVH; Peptide with targeting and/or antimicrobial activity)”, the “Target(s)” value is recorded as “S. mutans; also recorded: E. coli”.

As for “PF-673 (VRRLRM; Peptide with targeting and/or antimicrobial activity)”, the “Target(s)” value was “S. mutans; also recorded: E. coli”.

Source of the values: patent publication US20110039763A1, “TARGETED ANTIMICROBIAL MOIETIES” (C3 JIAN, INC., priority 2009, published 2011).
